Reference: patent US20260317364A1, “ACTIVE MACROLIDE ANTIBIOTIC COMPOUNDS AGAINST PATHOGENS” (priority 2023, published 2026)

Key:
[1] = tested on: panel of bacterial isolates, including macrolide-resistant strains; assay: Antibacterial activity against panel of bacterial isolates (MIC); type: cell-based; conditions: comparison with other compounds of the series or reference macrolides
Protocol: Acylides 2-24, as well as carbamate acylides 29-42, 47-48 and 55 and 56 were tested for antibacterial activity against a panel of bacterial isolates, including macrolide-resistant strains. Furthermore, potential toxicity against human HEK293 and red blood cells was assessed. All compounds were submitted to ComPlat (Karlsruhe Institute of Technology, Germany) for compound management and screening. As reference antibiotics, the macrolide antibiotics clarithromycin (CTY), telithromycin (TEL), solithromycin (SOL), as well as the previously reported acylides TEA0777 and X10324 (See, Wayne, P. C. a. L. S. I., Methods for Dilution Antimicrobial Susceptibility Tests for Bacteria That Grow Aerobically. CLSI document M07. CLSI 2009) were employed. […]
Furthermore, the Gram-negative bacteria E. coli (DSM 30083), Acinetobacter baumannii Bouvet and Grimont 1986 (DSM 30007) and Pseudomonas aeruginosa (DSM 50071) were assayed. […] The MIC values were determined as previously described (See, Wayne, P. C. a. L. S. I., Methods for Dilution Antimicrobial Susceptibility Tests for Bacteria That Grow Aerobically. CLSI document M07. CLSI 2009; Albada, H. B., et al., Modulating the activity of short arginine-tryptophan containing antibacterial peptides with N-terminal metallocenoyl groups. 2012. 8(1): p. 1753-1764).

[2] = tested on: E. coli tolC-deficient (tolC; MB5747); assay: Antibacterial activity against tolC-deficient E. coli; type: cell-based

| Compound | antibacterial activity (in words) [1] | activity against tolC-deficient E. coli [2] |
| --- | --- | --- |
| 2-desfluoro-solithromycin [Compound 50] | significantly less potent than solithroymcin | – |
| CC[C@H]1OC(=O)[C@H](C)[C@@H](O[C@H]2C[C@@](C)(OC)[C@@H](O)[C@H](C)O2)[C@H](C)[C@@H](O[C@@H]2O[C@H](C)C[C@H](N(C)C)[C@H]2O)[C@](C)(OC)C[C@@H](C)C(=O)[C@H](C)[C@@H](O)[C@]1(C)O [clarithromycin] | – | apart from the clinically used clarithromycin and telithromycin show activity |
| CC[C@H]1OC(=O)[C@H](C)C(=O)[C@H](C)[C@@H](O[C@@H]2O[C@H](C)C[C@H](N(C)C)[C@H]2O)[C@](C)(OC)C[C@@H](C)C(=O)[C@H](C)[C@H]2N(CCCCn3cnc(-c4cccnc4)c3)C(=O)O[C@]12C [telithromycin] | – | apart from the clinically used clarithromycin and telithromycin show activity |
